From US9802974B2, “Synthesis of diverse glycosylphosphatidylinositol glycans from Toxoplasma gondii and their application as vaccines and diagnostics” (Max-Planck-Gesellschaft zur Förderung der Wissenschaften …, priority 2012, dated 2017)
Entries after “also recorded” stand apart in the source; their conditions may differ.

The molecules below were run on serum antibodies raised against the conjugate consisting of compound 3 covalently linked to CRM197 (assay: Carbohydrate microarray analysis of serum from Balb/c mice immunized with the conjugate of compound 3 and CRM197). Settings: pooled serum of Balb/c mice immunized with compound 3-CRM197 conjugate; compounds printed at 1 mM; FIG. 3.
Type: binding
Method: FIG. 3: left side: Analysis of pooled serum that was obtained 4 weeks after 1st immunization of Balb/c mice with a conjugate consisting of CRM197 covalently linked to compound 3; right side: Printing pattern: all compounds were printed in a 3×3 pattern and in a concentration of 1 mM; left, upper corner: compound 5; left lower corner: compound 3; right, upper corner: compound 4; right lower corner: (α-D-Mannopyranosyl)-(1→2)-(α-D-mannopyranosyl)-(1→2)-(α-D-mannopyranosyl)-(1→6)-(α-D-mannopyranosyl)-(1→4)-(2-amino-2-deoxy-α-D-glucopyranosyl)-(1→6)-1-O-(6-thiohexyl phosphono)-D-myo-inositol (Chem. Eur. J. 2005, 11, 2493).
Three female BALB/c mice were immunized s.c. with 35 μg conjugate, prepared as described in example 11a, in Freund's complete adjuvant. […] After the second immunization, serum was collected and the antibody titer (total IgG) was determined by microarray six weeks after the first immunization.

| Molecule | binding of serum antibodies to the glycan printed on the microarray |
| --- | --- |
| 6-O-(aminoethyl phosphono)-α-D-mannopyranosyl-(1→2)-α-D-mannopyranosyl-(1→6)-4-O-(α-D-glucopyranosyl-(1→4)-2-deoxy-2-acetamido-β-D-galactopyranosyl)-α-D-manno-pyranosyl-(1→4)-2-amino-2-deoxy-α-D-glucopyranosyl-(1→6)-1-O-(thiohexyl phosphono)-D-myo-inositol [compound 4] | not |
| N[C@H]1[C@@H](O[C@@H]2[C@@H](O)[C@H](O)[C@@H](O)[C@@H](O)[C@H]2OP(=O)(O)OCCCCCCS)O[C@H](CO)[C@@H](O[C@H]2O[C@H](CO[C@H]3O[C@H](CO)[C@@H](O)[C@H](O)[C@@H]3O[C@H]3O[C@H](CO)[C@@H](O)[C@H](O)[C@@H]3O[C@H]3O[C@H](CO)[C@@H](O)[C@H](O)[C@@H]3O)[C@@H](O)[C@H](O)[C@@H]2O)[C@@H]1O [(α-D-Mannopyranosyl)-(1→2)-(α-D-mannopyranosyl)-(1→2)-(α-D-mannopyranosyl)-(1→6)-(α-D-mannopyranosyl)-(1→4)-(2-amino-2-deoxy-α-D-glucopyranosyl)-(1→6)-1-O-(6-thiohexylphosphono)-D-myo-inositol, reference compound] | not |
| CC(=O)NC1C(O)[C@@H](O)C(CO)O[C@H]1O[C@@H]1C(CO[C@H]2OC(CO)[C@@H](O)C(O)C2O[C@H]2OC(COP(=O)(O)OCCN)[C@@H](O)C(O)C2O)O[C@H](O[C@@H]2C(CO)O[C@H](O[C@@H]3C(O)C(O)[C@@H](O)C(O)C3OP(=O)(O)OCCCCCCS)C(N)C2O)C(O)C1O (stereo partly drawn) [compound 3, 6-O-(aminoethylphosphono)-α-D-mannopyranosyl-(1→2)-α-D-mannopyranosyl-(1→6)-4-O-(2-deoxy-2-acetamido-β-D-galactopyranosyl)-α-D-mannopyranosyl-(1→4)-2-amino-2-deoxy-α-D-glucopyranosyl-(1→6)-1-O-(thiohexylphosphono)-D-myo-inositol] | specifically evoke a binding; also recorded: bound |
| CC(=O)NC1C(O)[C@@H](O)C(CO)O[C@H]1O[C@@H]1C(CO[C@H]2OC(CO)[C@@H](O)C(O)C2O[C@H]2OC(COP(=O)(O)OCCN)[C@@H](O)C(O)C2O)O[C@H](O[C@@H]2C(CO)O[C@H](O[C@@H]3C(O)C(O)[C@@H](O)C(O)C3OP(=O)(O)OCCCCCCS)C(N)C2O)C(OP(=O)(O)OCCN)C1O (stereo partly drawn) [compound 5, 6-O-(aminoethylphosphono)-α-D-mannopyranosyl-(1→2)-α-D-mannopyranosyl-(1→6)-2-O-(aminoethylphosphono)-4-O-(2-deoxy-2-acetamido-β-D-galactopyranosyl)-α-D-mannopyranosyl-(1→4)-2-amino-2-deoxy-α-D-glucopyranosyl-(1→6)-1-O-(thiohexylphosphono)-D-myo-inositol] | not and did not show cross reactivity |
